Source: patent publication US12387622B2, “Systems and methods for modeling veins and associated blood vessel components” (The Texas A&M University System, priority 2019, dated 2025)

Tests used:
[1] = tested on: thrombi formation within venous valves 50A-50C; assay: Vein-on-a-chip: anticoagulant-treated blood perfused through TNF-α treated, HUVEC-lined venous valves; platelets and fibrin imaged; type: cell-based, human; conditions: for thrombi at cusps 52 and at the microfluidic channel 44B: DOAC dosage increased to 500 ng/ml; for thrombi at cusps 52 and at the microfluidic channel 44B / fibrin rich clots in cusps 52 / thrombi in the luminal portion of the microfluidic model 40: venous valve 50B treated with TNF-α
Protocol: In this embodiment, to form microfluidic chip 40, microelectronic and semiconductor fabrication techniques were used to develop an SU-8 photoresist-based master mold. Particularly, computational fluid dynamics simulations were carried out to arrive at the open venous valve designs (e.g., venous valves 50A-50C) which contained recirculations as observed in venous valve cusps in vivo. The embodiments of the finalized venous valve designs shown in FIGS. 3-5 were developed using solid modeling computer-aided design (CAD) software (e.g., the SolidWorks™ software package published by Dassault Systemes) and a photomask of the finalized valve designs was used to fabricate the master mold using epoxy-based negative photoresist—SU-8 on a silicon wafer in this embodiment. In this embodiment for forming microchannels 44A-44C, once the master molds were fabricated, the wafers were treated with Silane, and Polydimethylsiloxane (PDMS) having an […] to crosslinker ratio of about 10:1 was poured into the master mold. In this embodiment, once the PDMS was set, the PDMS was striped and bonded to a PDMS coated glass slide to form microchannels 44A-44C, each microchannel 44A-44C having PDMS coated on each side thereof. Additionally, PDMS, being hydrophobic, was treated with plasma and then silanized with (3-aminopropyl) triethoxylsilane (APTES) to make the PDMS hydrophilic. In this embodiment, microchannels 44A-44C were then filled with type-I rat tail collagen of about 200 micrograms per milliliter (ug/ml) and fibronectin of about 50 ug/ml to form an extracellular matrix (ECM) configured to support endothelial cell growth on the walls of each microchannel 44A-44C.
(§1) In this embodiment for forming microchannels 44A-44C, human umbilical vein endothelial cells (HUVECs) were cultured over a layer of the ECM coated on microchannels 44A-44C; however, in other embodiments, human or animal cell lines other than HUVECs may also be used in the formation of microchannels 44A-44C. In this embodiment, HUVECs, a human primary cell line derived from the human umbilical vein, were acquired and seeded on T75 flasks coated with type I rat tail collagen of about 5 micrograms (μg) per 5 cm^2, the HUVECs being seeded at about 50,000 cells per flask. In this embodiment, the endothelial growth media (EGM) (EGM-2 MV, promocell in this embodiment) disposed in the flasks were replaced every two days, and once the flasks were 80% confluent, the HUVECs were detached from the flasks and seeded on microchannels 44A-44C with about 20-30 microliters (μl) of cell suspension having cell density of about 1e7 cells per milliliter (ml). The cell suspension was passed through a cell strainer to remove debris and cell aggregates that were larger than about 40 μm in diameter. In this embodiment, microchannels 44A-44C were then first filled with cell suspension and kept upside down for about 20 minutes to seed the top face of microchannels 44A-44C, and then microchannels 44A-44C were again filled with cell suspension and kept upright for 20 minutes to seed the bottom faces of microchannels 44A-44C.
To induce activation, the vascular lumen coated to microchannels 44A-44C was treated with the tumor necrosis factor (TNF) TNF-α at about 0-200 nanograms per milliliter (ng/ml) in this embodiment. Particularly, the seeded microchannels 44A-44C were perfused with media at about 1 ul/min for about 24 hours. Confluent lumen was formed on the walls of microchannels 44A-44C at the end of 24 hours. Additionally, in this embodiment, different doses TNF-α, a cytokine, was introduced into the confluent lumen of the channels for about 18 hours to observe the dose dependent inflammation of the endothelial cells in the straight sections of microchannels 44A-44C and venous valve cusps of venous valves 50A-50C.
In this embodiment of the formation of microchannels 44A-44C, to evaluate role of hypoxia, microfluidic chip 40 was incubated at 3.9% oxygen. […]

[2] = tested on: human umbilical vein endothelial cells (HUVECs); assay: Vein-on-a-chip: TNF-α stimulation of HUVEC lumen followed by blood perfusion at venous shear; type: cell-based
Protocol: as §1, with “The cell suspension was passed through a cell strainer to remove debris and cell aggregates that were larger than about 40 μm in diameter. In this embodiment, microchannels 44A-44C were then first filled with cell suspension and kept upside down for about 20 minutes to seed the top face of microchannels 44A-44C, and then microchannels 44A-44C were again filled with cell suspension and kept upright for 20 minutes to seed the bottom faces of microchannels 44A-44C.” left out
In this embodiment of the formation of microchannels 44A-44C, to evaluate role of hypoxia, microfluidic chip 40 was incubated at 3.9% oxygen. […] Fluorescently labelled platelets and fibrin were visualized and quantitated via microscopes positioned adjacent microchannels 44A-44C. Additionally, in this embodiment, typical vascular identity and adhesion markers were measured through immunohistochemistry. […]

[3] = standard dosage 50 ng/ml of Apixaban in blood
[4] = standard dosage 100 ng/ml of Rivaroxaban in blood

## COc1ccc(-n2nc(C(N)=O)c3c2C(=O)N(c2ccc(N4CCCCC4=O)cc2)CC3)cc1 [Apixaban]
[1]
  thrombi at cusps 52 and at the microfluidic channel 44B: thrombi detected
[1]; [3]
  fibrin rich clots in cusps 52: fibrin rich clots were present
  thrombi in the luminal portion of the microfluidic model 40: unobservable thrombi

## O=C(NC[C@H]1CN(c2ccc(N3CCOCC3=O)cc2)C(=O)O1)c1ccc(Cl)s1 [Rivaroxaban]
[1]
  thrombi at cusps 52 and at the microfluidic channel 44B: thrombi detected
[1]; [4]
  fibrin rich clots in cusps 52: fibrin rich clots were present
  thrombi in the luminal portion of the microfluidic model 40: unobservable thrombi

## Heparin
[1]; addition of heparin in blood, dose dependent
  thrombi formation within venous valves 50A-50C: decreased the thrombi formation
[1]; higher Heparin dosage 0.50 IU/ml, TNF-α 5 ng/ml
  fibrin in cusps 52: only reduced at the higher Heparin dosage
[1]; lower dose of Heparin (approximately 0.25 IU/ml), TNF-α 5 ng/ml
  fibrin within microfluidic model 40: reduction in fibrin resulted
[1]; when the dosage of Heparin was increased (0.25 to 0.50 IU/ml), valve 50B treated with TNF-α 5 ng/ml, FIG. 38
  thrombi formed in microfluidic channels 44A-44C: reduced significantly

## TNF-α
[2]; blood perfused at venous shear of about 0.5 dynes/cm^2, no thrombi with untreated HUVECs
  thrombi in venous valves upon stimulation of HUVECs: thrombi were detected
[2]; blood perfused at venous shear rates
  clot formation in lumen treated with varying doses of cytokine: fibrin rich clots were predominantly formed in the venous valve cusps
